Columns and labels:
MC-CAR = assay: cells; assay type: functional, cell-based; conditions: Homo sapiens;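 also: growth inhibition of the human MC-CAR cell line, read out by a cell viability assay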
Description: SANGER: Inhibition of human MC-CAR cell growth in a cell viability assay.

COR-L279 = assay: SANGER: Inhibition of human COR-L279 cell growth in a cell viability assay.; assay type: functional, cell-based
BL-70 = assay: SANGER: Inhibition of human BL-70 cell growth in a cell viability assay.; assay type: functional, cell-based
TALL-1 = assay: cells; assay type: functional, cell-based; conditions: Homo sapiens;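 also: growth inhibition of cultured human TALL-1 cells, read out by a cell viability assay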
Description: SANGER: Inhibition of human TALL-1 cell growth in a cell viability assay.

NCI-H719 = assay: cells; assay type: functional, cell-based; conditions: Homo sapiens;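 also: growth inhibition of the cultured cell line, read out with a viability assay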
Description: SANGER: Inhibition of human NCI-H719 cell growth in a cell viability assay.

NCI-H322M = assay: cells; assay type: functional, cell-based; conditions: Homo sapiens;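 also: cell viability assay measuring inhibition of growth of human NCI-H322M cells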
Description: SANGER: Inhibition of human NCI-H322M cell growth in a cell viability assay.

ECC12 = assay: cells; assay type: functional, cell-based; conditions: Homo sapiens
Description: SANGER: Inhibition of human ECC12 cell growth in a cell viability assay.

OPM-2 = assay: cells; assay type: functional, cell-based; conditions: Homo sapiens;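 also: growth of OPM-2 cells measured with a viability assay, IC50 for suppression of proliferation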
Description: SANGER: Inhibition of human OPM-2 cell growth in a cell viability assay.

NALM-6 = assay: cells; assay type: functional, cell-based; conditions: Homo sapiens;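 also: growth inhibition of NALM-6 cells, read out with a cell viability assay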
Description: SANGER: Inhibition of human NALM-6 cell growth in a cell viability assay.

MRK-nu-1 = assay: cells; assay type: functional, cell-based; conditions: Homo sapiens;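 also: cell viability assay measuring growth suppression of human MRK-nu-1 cells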
Description: SANGER: Inhibition of human MRK-nu-1 cell growth in a cell viability assay.

LC-1F = assay: cells; assay type: functional, cell-based; conditions: Homo sapiens;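 also: growth inhibition of human LC-1F cells, read out with a cell viability assay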
Description: SANGER: Inhibition of human LC-1F cell growth in a cell viability assay.

SKM-1 = assay: SANGER: Inhibition of human SKM-1 cell growth in a cell viability assay.; assay type: functional, cell-based
P31-FUJ = assay: cells; assay type: functional, cell-based; conditions: Homo sapiens;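 also: growth inhibition of P31-FUJ cells, read out with a viability assay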
Description: SANGER: Inhibition of human P31-FUJ cell growth in a cell viability assay.

NCI-H524 = assay: cells; assay type: functional, cell-based; conditions: Homo sapiens;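 also: growth inhibition of human NCI-H524 cells, read out through a cell viability assay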
Description: SANGER: Inhibition of human NCI-H524 cell growth in a cell viability assay.

SR = assay: cells; assay type: functional, cell-based; conditions: Homo sapiens
Description: SANGER: Inhibition of human SR cell growth in a cell viability assay.

BC1 cell line = assay: SANGER: Inhibition of human BC-1 cell growth in a cell viability assay.; assay type: functional, cell-based
NCCIT = assay: SANGER: Inhibition of human NCCIT cell growth in a cell viability assay.; assay type: functional, cell-based
L-540 = assay: cells; assay type: functional, cell-based; conditions: Homo sapiens;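 also: growth inhibition of the human L-540 cell line, read out with a viability assay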
Description: SANGER: Inhibition of human L-540 cell growth in a cell viability assay.

SNU-C1 = assay: cells; assay type: functional, cell-based; conditions: Homo sapiens;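 also: growth inhibition of SNU-C1 human cells, read out by a cell viability assay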
Description: SANGER: Inhibition of human SNU-C1 cell growth in a cell viability assay.

U-698-M = assay: cells; assay type: functional, cell-based; conditions: Homo sapiens
Description: SANGER: Inhibition of human U-698-M cell growth in a cell viability assay.

NCI-H2196 = assay: cells; assay type: functional, cell-based; conditions: Homo sapiens;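 also: cell viability assay used as the readout of growth inhibition in NCI-H2196 cells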
Description: SANGER: Inhibition of human NCI-H2196 cell growth in a cell viability assay.

NCI-H2227 = assay: cells; assay type: functional, cell-based; conditions: Homo sapiens;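 also: growth inhibition of the human cell line, read out with a cell viability assay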
Description: SANGER: Inhibition of human NCI-H2227 cell growth in a cell viability assay.

TUR = assay: cells; assay type: functional, cell-based; conditions: Homo sapiens;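 also: growth inhibition of human TUR cells, read out with a cell viability assay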
Description: SANGER: Inhibition of human TUR cell growth in a cell viability assay.

CPC-N = assay: cells; assay type: functional, cell-based; conditions: Homo sapiens;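 also: growth inhibition of CPC-N cells, with a cell viability assay as the readout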
Description: SANGER: Inhibition of human CPC-N cell growth in a cell viability assay.

CESS = assay: SANGER: Inhibition of human CESS cell growth in a cell viability assay.; assay type: functional, cell-based
Daudi = assay: cells; assay type: functional, cell-based; conditions: Homo sapiens;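 also: growth inhibition of Daudi cells, read out by a viability assay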
Description: SANGER: Inhibition of human Daudi cell growth in a cell viability assay.

JIYOYE = assay: cells; assay type: functional, cell-based; conditions: Homo sapiens
Description: SANGER: Inhibition of human JiyoyeP-2003 cell growth in a cell viability assay.

NCI-H1048 = assay: cells; assay type: functional, cell-based; conditions: Homo sapiens;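 also: growth inhibition of human NCI-H1048 cells, read out with a cell viability assay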
Description: SANGER: Inhibition of human NCI-H1048 cell growth in a cell viability assay.

MOLT-13 = assay: cells; assay type: functional, cell-based; conditions: Homo sapiens;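 also: IC50 for suppression of MOLT-13 cell growth, read out with a cell viability assay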
Description: SANGER: Inhibition of human MOLT-13 cell growth in a cell viability assay.

SNU-423 = assay: cells; assay type: functional, cell-based, Homo sapiens; conditions: Homo sapiens, SNU-423
Description: SANGER: Inhibition of human SNU-423 cell growth in a cell viability assay.

HSC-4 = assay: cells; assay type: functional, cell-based, Homo sapiens; conditions: Homo sapiens, HSC-4;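 also: growth inhibition of human HSC-4 cells, read out with a cell viability assay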
Description: SANGER: Inhibition of human HSC-4 cell growth in a cell viability assay.

LU-135 = assay: cells; assay type: functional, cell-based; conditions: Homo sapiens
Description: SANGER: Inhibition of human LU-135 cell growth in a cell viability assay.

SW900 = assay: cells; assay type: functional, cell-based; conditions: Homo sapiens;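 also: IC50 is the concentration that inhibits SW900 cell growth, measured by a cell viability assay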
Description: SANGER: Inhibition of human SW900 cell growth in a cell viability assay.

BALL-1 = assay: cells; assay type: functional, cell-based; conditions: Homo sapiens;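 also: growth inhibition of BALL-1 cells, read out with a cell viability assay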
Description: SANGER: Inhibition of human BALL-1 cell growth in a cell viability assay.

NCI-H630 = assay: cells; assay type: functional, cell-based, Homo sapiens; conditions: Homo sapiens, NCI-H630;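 also: growth inhibition of NCI-H630 cells, read out with a cell viability assay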
Description: SANGER: Inhibition of human NCI-H630 cell growth in a cell viability assay.

HCT-15 = assay: cells; assay type: functional, cell-based, Homo sapiens; conditions: Homo sapiens, HCT-15;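 also: cell viability readout, IC50 reflecting suppression of HCT-15 cell growth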
Description: SANGER: Inhibition of human HCT-15 cell growth in a cell viability assay.

H9 = assay: cells; assay type: functional, cell-based; conditions: Homo sapiens
Description: SANGER: Inhibition of human H9 cell growth in a cell viability assay.

D-566MG = assay: cells; assay type: functional, cell-based; conditions: Homo sapiens
HuO9 = assay: cells; assay type: functional, cell-based, Homo sapiens; conditions: Homo sapiens, HuO9;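 also: growth inhibition of HuO9 cells, read out with a cell viability assay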
Description: SANGER: Inhibition of human HuO9 cell growth in a cell viability assay.

SMILES	IC50 (MC-CAR)	IC50 (COR-L279)	IC50 (BL-70)	IC50 (TALL-1)	IC50 (NCI-H719)	IC50 (NCI-H322M)	IC50 (OPM-2)	IC50 (NALM-6)	IC50 (MRK-nu-1)	IC50 (LC-1F)	IC50 (SKM-1)	IC50 (NCI-H1048)	IC50 (MOLT-13)	IC50 (HSC-4)	IC50 (LU-135)	IC50 (SW900)	IC50 (BALL-1)	IC50 (NCI-H630)	IC50 (D-566MG)	IC50 (HuO9)	also measured
C=C1C(=O)O[C@@H]2C3O[C@]3(C)CC/C=C(\C)CC[C@@H]12 (stereo partly specified)	> 5000 nM	> 5000 nM	> 5000 nM	> 5000 nM	> 5000 nM	> 5000 nM	> 5000 nM	> 5000 nM	2010 nM	> 5000 nM	> 5000 nM										IC50 (ECC12): > 5000 nM; IC50 (P31-FUJ): > 5000 nM; IC50 (NCI-H524): > 5000 nM; IC50 (SR): > 5000 nM; IC50 (BC1 cell line): > 5000 nM; IC50 (NCCIT): > 5000 nM; IC50 (L-540): > 5000 nM; IC50 (SNU-C1): > 5000 nM; IC50 (U-698-M): > 5000 nM; IC50 (NCI-H2196): 645 nM; IC50 (NCI-H2227): > 5000 nM; IC50 (TUR): > 5000 nM; IC50 (CPC-N): > 5000 nM; IC50 (CESS): > 5000 nM; IC50 (Daudi): > 5000 nM; IC50 (JIYOYE): > 5000 nM
CN(C)C/C=C/C(=O)Nc1cc2c(Nc3ccc(F)c(Cl)c3)ncnc2cc1O[C@H]1CCOC1 [AFATINIB]												> 500 nM	240 nM	17.5 nM	> 500 nM	> 500 nM	> 500 nM	> 500 nM	> 500 nM	> 500 nM	IC50 (SNU-423): > 500 nM; IC50 (HCT-15): > 500 nM; IC50 (H9): 71.3 nM
O=C(NOCC1CC1)c1ccc(F)c(F)c1Nc1ccc(I)cc1Cl [CI-1040]												> 10000 nM	5070 nM	244 nM	7560 nM	> 10000 nM	> 10000 nM	> 10000 nM	6540 nM	> 10000 nM	IC50 (HCT-15): > 10000 nM; IC50 (H9): 22.8 nM
CC1=C2C[C@H]3[C@@H](CC=C4C[C@@H](O)CC[C@@]43C)[C@@H]2CC[C@]12O[C@@H]1C[C@H](C)CN[C@H]1[C@H]2C [CYCLOPAMINE]	> 16000 nM	> 16000 nM	> 16000 nM	> 16000 nM	> 16000 nM	> 16000 nM	> 16000 nM	> 16000 nM	> 16000 nM	> 16000 nM	> 16000 nM										IC50 (ECC12): > 16000 nM; IC50 (P31-FUJ): > 16000 nM; IC50 (NCI-H524): > 16000 nM; IC50 (SR): > 16000 nM; IC50 (BC1 cell line): > 16000 nM; IC50 (NCCIT): > 16000 nM; IC50 (L-540): > 16000 nM; IC50 (SNU-C1): > 16000 nM; IC50 (U-698-M): > 16000 nM; IC50 (NCI-H2196): > 16000 nM; IC50 (NCI-H2227): > 16000 nM; IC50 (TUR): > 16000 nM; IC50 (CPC-N): > 16000 nM; IC50 (CESS): > 16000 nM; IC50 (Daudi): > 16000 nM; IC50 (JIYOYE): > 16000 nM
Nc1ccn([C@@H]2O[C@H](CO)[C@@H](O)[C@@H]2O)c(=O)n1 [CYTARABINE]												389 nM	> 2000 nM	467 nM	> 2000 nM	1620 nM	> 2000 nM	> 2000 nM	269 nM	> 2000 nM	IC50 (SNU-423): 881 nM; IC50 (HCT-15): > 2000 nM; IC50 (H9): 391 nM
CC(=O)O[C@@]12CO[C@@H]1C[C@H](O)[C@@]1(C)C(=O)[C@H](O)C3=C(C)[C@@H](OC(=O)[C@H](O)[C@@H](NC(=O)OC(C)(C)C)c4ccccc4)C[C@@](O)([C@@H](OC(=O)c4ccccc4)[C@H]21)C3(C)C [DOCETAXEL]												1.92 nM	> 10 nM	0.239 nM	> 10 nM	7.55 nM	> 10 nM	> 10 nM	0.182 nM	3.46 nM	IC50 (SNU-423): 8.57 nM; IC50 (H9): 1.24 nM
CN(Cc1cnc2nc(N)nc(N)c2n1)c1ccc(C(=O)N[C@@H](CCC(=O)O)C(=O)O)cc1 [METHOTREXATE]												> 200 nM		> 200 nM	> 200 nM	> 200 nM	> 200 nM	> 200 nM	> 200 nM	> 200 nM	IC50 (SNU-423): > 200 nM
O=C(c1cc(Cc2n[nH]c(=O)c3ccccc23)ccc1F)N1CCN(C(=O)C2CC2)CC1 [OLAPARIB]												> 5000 nM	> 5000 nM	> 5000 nM	> 5000 nM	> 5000 nM	> 5000 nM	> 5000 nM	2450 nM	> 5000 nM	IC50 (SNU-423): > 5000 nM; IC50 (H9): > 5000 nM
CN1CCN(CCOc2cc(OC3CCOCC3)c3c(Nc4c(Cl)ccc5c4OCO5)ncnc3c2)CC1 [SARACATINIB]	> 2000 nM	> 2000 nM	> 2000 nM	> 2000 nM	> 2000 nM	> 2000 nM	> 2000 nM	> 2000 nM	> 2000 nM	> 2000 nM	> 2000 nM		> 2000 nM								IC50 (P31-FUJ): > 2000 nM; IC50 (NCI-H524): > 2000 nM; IC50 (SR): > 2000 nM; IC50 (BC1 cell line): > 2000 nM; IC50 (NCCIT): 732 nM; IC50 (L-540): > 2000 nM; IC50 (SNU-C1): > 2000 nM; IC50 (U-698-M): > 2000 nM; IC50 (NCI-H2196): > 2000 nM; IC50 (TUR): > 2000 nM; IC50 (CPC-N): > 2000 nM; IC50 (CESS): > 2000 nM; IC50 (Daudi): > 2000 nM; IC50 (JIYOYE): > 2000 nM
Cn1cc(C2=C(c3ccc(Cl)cc3Cl)C(=O)NC2=O)c2ccccc21 [SB-216763]												> 10000 nM		> 10000 nM	> 10000 nM	> 10000 nM	> 10000 nM	> 10000 nM	> 10000 nM	> 10000 nM	IC50 (HCT-15): > 10000 nM
CO[C@H]1C[C@@H]2CC[C@@H](C)[C@@](O)(O2)C(=O)C(=O)N2CCCC[C@H]2C(=O)O[C@H]([C@H](C)C[C@@H]2CC[C@@H](O)[C@H](OC)C2)CC(=O)[C@H](C)/C=C(\C)[C@@H](O)[C@@H](OC)C(=O)[C@H](C)C[C@H](C)/C=C/C=C/C=C/1C [SIROLIMUS]	> 100 nM	87.3 nM	28.4 nM	> 100 nM	> 100 nM	> 100 nM	4.15 nM	> 100 nM	< 0.391 nM	> 100 nM	> 100 nM										IC50 (P31-FUJ): > 100 nM; IC50 (NCI-H524): > 100 nM; IC50 (SR): 11.4 nM; IC50 (BC1 cell line): 31.3 nM; IC50 (NCCIT): > 100 nM; IC50 (L-540): 10.4 nM; IC50 (SNU-C1): > 100 nM; IC50 (U-698-M): > 100 nM; IC50 (NCI-H2196): > 100 nM; IC50 (TUR): > 100 nM; IC50 (CPC-N): > 100 nM; IC50 (CESS): 13.1 nM; IC50 (Daudi): 0.434 nM; IC50 (JIYOYE): 10.9 nM
CCC(=O)N1CCN(c2ccc(-n3c(=O)ccc4cnc5ccc(-c6cnc7ccccc7c6)cc5c43)cc2C(F)(F)F)CC1 [TORIN1]	554 nM	108 nM	3.37 nM	229 nM	967 nM	> 1200 nM	12.9 nM	11 nM	7.07 nM	39.9 nM	> 1200 nM		302 nM								IC50 (P31-FUJ): > 1200 nM; IC50 (NCI-H524): 587 nM; IC50 (SR): 63.7 nM; IC50 (BC1 cell line): > 1200 nM; IC50 (NCCIT): 543 nM; IC50 (L-540): 301 nM; IC50 (SNU-C1): 382 nM; IC50 (U-698-M): > 1200 nM; IC50 (NCI-H2196): 330 nM; IC50 (TUR): > 1200 nM; IC50 (CPC-N): 1160 nM; IC50 (CESS): 31 nM; IC50 (Daudi): 42.3 nM; IC50 (JIYOYE): 108 nM
Cc1cc(Nc2cc(N3CCN(C)CC3)nc(Sc3ccc(NC(=O)C4CC4)cc3)n2)n[nH]1 [TOZASERTIB]	> 2000 nM	> 2000 nM	390 nM	> 2000 nM	> 2000 nM	> 2000 nM	> 2000 nM	25.5 nM	381 nM	> 2000 nM	> 2000 nM										IC50 (P31-FUJ): > 2000 nM; IC50 (NCI-H524): 511 nM; IC50 (SR): 246 nM; IC50 (BC1 cell line): > 2000 nM; IC50 (NCCIT): > 2000 nM; IC50 (L-540): > 2000 nM; IC50 (SNU-C1): > 2000 nM; IC50 (U-698-M): > 2000 nM; IC50 (NCI-H2196): > 2000 nM; IC50 (TUR): > 2000 nM; IC50 (CPC-N): > 2000 nM; IC50 (CESS): 313 nM; IC50 (Daudi): > 2000 nM; IC50 (JIYOYE): > 2000 nM

Reference: ChEMBL document CHEMBL1201861, “Genomics of Drug Sensitity in Cancer screening data, Wellcome Trust Sanger Institute”
